According to paper PMC2662629 (Pharmaceutical research, 2008):
Where “and” joins values, the source holds several entries; their conditions need not be identical. Equal values may be shown once. Entries after “also recorded” stand apart in the source; their conditions may differ. Read-outs that look alike come from different tables or passages of the source.

Columns and labels:
ABCG2 = target: T1, ABCG2 (Rattus norvegicus, UniProt Q80W57); test: Bodipy FL prazosin transport assay in isolated rat brain capillaries; type: cell-based; conditions: for IC50: rat brain capillaries
T1 sequence (Q80W57 1-657): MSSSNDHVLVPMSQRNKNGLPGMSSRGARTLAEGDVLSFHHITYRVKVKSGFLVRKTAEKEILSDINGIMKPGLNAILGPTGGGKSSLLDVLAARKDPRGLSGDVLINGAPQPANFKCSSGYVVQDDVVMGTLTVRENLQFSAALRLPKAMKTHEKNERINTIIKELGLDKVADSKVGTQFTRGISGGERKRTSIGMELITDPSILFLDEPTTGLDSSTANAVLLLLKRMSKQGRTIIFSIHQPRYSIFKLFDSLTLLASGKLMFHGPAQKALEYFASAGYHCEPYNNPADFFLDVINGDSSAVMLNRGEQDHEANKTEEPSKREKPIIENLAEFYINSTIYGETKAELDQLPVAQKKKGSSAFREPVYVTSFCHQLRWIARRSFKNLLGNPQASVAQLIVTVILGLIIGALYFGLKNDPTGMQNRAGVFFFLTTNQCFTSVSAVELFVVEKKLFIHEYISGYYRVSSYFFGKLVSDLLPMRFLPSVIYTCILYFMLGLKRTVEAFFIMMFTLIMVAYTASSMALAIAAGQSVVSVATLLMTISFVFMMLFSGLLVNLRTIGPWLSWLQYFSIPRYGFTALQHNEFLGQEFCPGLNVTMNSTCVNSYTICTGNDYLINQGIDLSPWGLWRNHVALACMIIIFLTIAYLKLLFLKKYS

MCF-7 cells = conditions: read-out: IC50 for MCF-7 cells; cited from earlier work
human ABCG2 = target: T2, human ABCG2 (Homo sapiens, UniProt Q9UNQ0); type: binding
T2 sequence (Q9UNQ0 1-655): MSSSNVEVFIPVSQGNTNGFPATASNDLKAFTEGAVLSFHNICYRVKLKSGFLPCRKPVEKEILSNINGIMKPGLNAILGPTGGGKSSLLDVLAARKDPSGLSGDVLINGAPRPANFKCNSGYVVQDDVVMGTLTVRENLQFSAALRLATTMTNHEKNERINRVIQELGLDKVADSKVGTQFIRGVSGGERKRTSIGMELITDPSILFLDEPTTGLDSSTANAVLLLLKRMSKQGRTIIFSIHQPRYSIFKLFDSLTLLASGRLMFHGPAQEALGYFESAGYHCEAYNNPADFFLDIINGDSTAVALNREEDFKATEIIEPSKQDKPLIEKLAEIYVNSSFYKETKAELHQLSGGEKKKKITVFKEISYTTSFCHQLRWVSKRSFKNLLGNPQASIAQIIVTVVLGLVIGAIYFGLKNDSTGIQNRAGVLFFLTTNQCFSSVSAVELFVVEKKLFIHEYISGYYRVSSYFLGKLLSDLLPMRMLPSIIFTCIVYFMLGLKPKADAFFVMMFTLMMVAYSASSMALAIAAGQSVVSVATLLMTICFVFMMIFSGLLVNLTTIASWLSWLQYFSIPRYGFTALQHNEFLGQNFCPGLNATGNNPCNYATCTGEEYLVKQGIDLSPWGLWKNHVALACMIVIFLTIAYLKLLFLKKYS

mouse ABCG2 [1] = target: T3, mouse ABCG2 (Mus musculus, UniProt Q7TMS5); type: in vivo, mice
T3 sequence (Q7TMS5 1-657): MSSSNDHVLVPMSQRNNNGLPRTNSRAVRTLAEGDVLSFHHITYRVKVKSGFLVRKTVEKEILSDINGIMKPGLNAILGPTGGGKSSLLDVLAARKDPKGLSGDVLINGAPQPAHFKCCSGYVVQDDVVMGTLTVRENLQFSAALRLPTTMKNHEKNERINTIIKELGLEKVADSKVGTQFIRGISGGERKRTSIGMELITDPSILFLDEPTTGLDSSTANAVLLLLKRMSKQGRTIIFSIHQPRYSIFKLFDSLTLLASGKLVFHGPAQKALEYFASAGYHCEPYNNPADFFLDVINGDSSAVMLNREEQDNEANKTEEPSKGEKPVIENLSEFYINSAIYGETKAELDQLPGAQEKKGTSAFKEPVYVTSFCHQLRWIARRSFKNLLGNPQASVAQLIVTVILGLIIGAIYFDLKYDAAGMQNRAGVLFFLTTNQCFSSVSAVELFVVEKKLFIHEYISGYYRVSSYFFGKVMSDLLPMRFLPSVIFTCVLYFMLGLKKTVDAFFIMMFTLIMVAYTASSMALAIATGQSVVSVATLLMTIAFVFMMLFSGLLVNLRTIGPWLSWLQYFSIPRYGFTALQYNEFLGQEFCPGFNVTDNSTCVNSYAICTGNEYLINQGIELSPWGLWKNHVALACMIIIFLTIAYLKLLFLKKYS

mouse ABCG2 [2] = type: in vivo, mice; conditions: FVB, mouse, plasma, oral, 20 mg/kg
mouse ABCG2 [3] = type: in vivo, mice
[4] = clinical trials in humans; cited from earlier work
pancreatic cancer = conditions: oral administration of 8 g curcumin daily up to 18 months; cited from earlier work

With `COc1ccc2c3c([nH]c2c1)[C@H](C=C(C)C)N1C(=O)[C@@H]2CCCN2C(=O)[C@@H]1C3` [FTC, fumitremorgin C] the “inhibition of the efflux of Bodipy-prazosin in brain capillaries” value (ABCG2) was 50% and the “luminal BODIPY FL prazosin fluorescence, % of control capillaries” value (ABCG2; 5 μM inhibitor, steady state) was “approximately 50%”.
For `COc1cc2c(cc1OC)CN(CCc1ccc(NC(=O)c3cccc4c(=O)c5cccc(OC)c5[nH]c34)cc1)CC2` [GF120918], the IC50 (MCF-7 cells) is given as 18000 nM.
In the case of `COc1ccc2c3c([nH]c2c1)[C@H](CC(C)C)N1C(=O)[C@H](CCC(=O)OC(C)(C)C)NC(=O)[C@@H]1C3` [Ko143], the IC50 (MCF-7 cells) is given as 19000 nM.
Compound `O=C(O)c1cc(/N=N/c2ccc(S(=O)(=O)Nc3ccccn3)cc2)ccc1O` [SASP, Sulfasalazine] has an IC50 (human ABCG2) of 1020 nM, a half-life (mouse ABCG2 [1]; FVB, mouse, plasma, po) of 5.02 h and a half-life (mouse ABCG2 [1]; FVB, mouse, plasma, po, 20 mg/kg) of 1.08 h. For the same compound, the Cmax (mouse ABCG2 [1]; FVB, mouse, plasma, po, 20 mg/kg, Cmax of SASP, SASP 20 mg/kg PO, vehicle pretreatment, wild-type mice) was 1230 ng/mL, the concentration at 24 h (mouse ABCG2 [2]) was less than 1 ng/mL and the “SASP plasma level in abcg2-/- mice relative to abcb1a-/- and wild-type groups” value (mouse ABCG2 [3]; 90 min after SASP 20 mg/kg PO) was 10-20 fold. The concentration at 90 min (mouse ABCG2 [3]; FVB, mouse, plasma, oral, 20 mg/kg) was ~540 ng/mL and 12400 ng/mL.
With `COc1cc(/C=C/C(=O)CC(=O)/C=C/c2ccc(O)c(OC)c2)ccc1O` [curcumin, Diferuoyl methane] the IC50 (ABCG2; IC50, inhibition of ABCG2-mediated efflux of BODIPY FL prazosin, ex vivo) was 19 nM, the IC50 (ABCG2; IC50, inhibition of ABCG2 activity (luminal BODIPY FL prazosin fluorescence), 2 μM BODIPY FL prazosin, 1 h, room temperature) was 19.4 nM and the “effect of curcumin pretreatment on plasma concentration of SASP” value (mouse ABCG2 [1]; curcumin 40 mg/kg PO 1 h before SASP 20 mg/kg PO, FVB-WT mice, data not shown) was “no effect”. For the same compound, the “effect of curcumin on the levels of SASP” value (mouse ABCG2 [3]; abcg2-/- mice, curcumin 400 mg/kg PO, 90 min after SASP 20 mg/kg PO) was “no significant effect; also recorded: no significant increase”, the “systemic bioavailability of orally administered curcumin” value [4] was “relatively low” and the “progression of pancreatic cancer” value (pancreatic cancer) was “inhibited progression”.
